{"source": "patent US20110251158A1", "about": "“FULLERENE THERAPIES FOR INFLAMMATION AND INHIBITION OF BUILD-UP OF ARTERIAL PLAQUE” (Luna Innovations Incorporated, priority 2008, published 2011)", "key": {"U937 monocyte cells": {"system": "U937 monocyte cells", "conditions": "for % Viability: human", "method": "The human monocytic cell line U937 was obtained from the American Type Culture Collection (Manassas, Va., USA). Cells are maintained in RPMI 1640 media enriched with 10% heat-inactivated FBS, 2 mM L-Glutamine, 10 mM HEPES buffer, 0.1 mM non-essential Amino Acids, 1% antibiotic/antimycotic, and 50 uM beta mercaptoethanol at 37° C., 6% CO2."}, "Solubility": {"assay": "Solubility", "assay_type": "physicochemical"}}, "note": "Like-named read-outs stand apart in the source and are kept apart here."}
{"compound": "O=C1O[C@H]([C@@H](O)CO)C(O)=C1O", "note": "[Vitamin C]", "values": [{"measurement": "toxic effects on the viability of serum-starved cell", "setting": "U937 monocyte cells", "result": "did not have toxic effects"}, {"measurement": "% Viability", "setting": "U937 monocyte cells; 3 day, 0.67 uM", "result": "98.8% ± 0.06"}, {"measurement": "% Viability", "setting": "U937 monocyte cells; 3 day, 6.7 uM", "result": "97.4% ± 1.86"}, {"measurement": "% Viability", "setting": "U937 monocyte cells; 3 day, 67 uM", "result": "98.2% ± 0.67"}, {"measurement": "% Viability", "setting": "U937 monocyte cells; 6 day, 0.67 uM", "result": "93.8% ± 1.09"}, {"measurement": "% Viability", "setting": "U937 monocyte cells; 6 day, 6.7 uM", "result": "91.2% ± 0.33"}, {"measurement": "% Viability", "setting": "U937 monocyte cells; 6 day, 67 uM", "result": "90.9% ± 0.07"}, {"measurement": "% Viability", "setting": "U937 monocyte cells; 9 day, 0.67 uM", "result": "60.9% ± 1.13"}, {"measurement": "% Viability", "setting": "U937 monocyte cells; 9 day, 6.7 uM", "result": "61.8% ± 1.10"}, {"measurement": "% Viability", "setting": "U937 monocyte cells; 9 day, 67 uM", "result": "60.7% ± 0.28"}]}
{"compound": "C70-(DMAE)4", "values": [{"measurement": "solubility in buffer", "setting": "Solubility; buffer", "result": "moderate solubility"}]}
{"compound": "C70-Tetraphosphate", "values": [{"measurement": "dissolution in aqueous solution", "setting": "Solubility; slightly basic aqueous solution, pH adjusted to 7.4", "result": "remained dissolved"}]}
{"compound": "C70-Tetrapyridine", "values": [{"measurement": "solubility", "setting": "Solubility; DI water and phosphate buffered saline", "result": "> 2000", "unit": "µg/mL"}]}
